In ChEMBL document CHEMBL3045450, “Studies on characteristics of ATPase activity of cardiac myosin in the presence of daunorubicin” (Med Chem Res, 2009):

Legend:
Assay type in all cases: tissue-based, Heart left ventricle; call rule not given here
[1] = Inhibition of Sus scrofa (pig) left ventricle Ca2+-ATPase activity of cardiac myosin assessed as inorganic phosphorus released from protein at 0.05 to 0.4 uM
[2] = Inhibition of Sus scrofa (pig) left ventricle Ca2+-ATPase activity of cardiac myosin assessed as inorganic phosphorus released from protein at 0.2 uM after 10 min
[3] = Inhibition of Sus scrofa (pig) left ventricle Ca2+-ATPase activity of cardiac myosin assessed as inorganic phosphorus released from protein at 0.05 uM after 30 min; details: 0.5 h
[4] = Inhibition of Sus scrofa (pig) left ventricle Ca2+-ATPase activity of cardiac myosin assessed as inorganic phosphorus released from protein at > 0.1 uM after 10 min
[5] = Inhibition of Sus scrofa (pig) left ventricle Ca2+-ATPase activity of cardiac myosin assessed as inorganic phosphorus released from protein at 0.2 to 1 uM; details: TDE = time-dependent effect
[6] = Inhibition of Sus scrofa (pig) left ventricle Ca2+-ATPase activity of cardiac myosin assessed as inorganic phosphorus released from protein at 0.4 uM in presence of Mg2+
[7] = Inhibition of Sus scrofa (pig) left ventricle Ca2+-ATPase activity of cardiac myosin assessed as inorganic phosphorus released from protein at 0.2 uM after 1 hr
[8] = Inhibition of Sus scrofa (pig) left ventricle Ca2+-ATPase activity of cardiac myosin assessed as residual activity at 0.8 uM

For `COc1cccc2c1C(=O)c1c(O)c3c(c(O)c1C2=O)C[C@@](O)(C(C)=O)C[C@@H]3O[C@H]1C[C@H](N)[C@H](O)[C@H](C)O1` [DAUNORUBICIN], the “inhibition (INH)” value [1] was “Active”, the “inhibition (INH)” value [2] was “Active” and the “inhibition (INH)” value [3] was “Active”. The “inhibition (INH)” value [4] was “Active”, the “inhibition (INH)” value [5] was “tde” and the “inhibition (INH)” value [6] was “Not Active”. For the same compound, the “inhibition (INH)” value [7] was “Active” and the Activity [8] was 0.12 U.
